Laboratory results: patent publication US20250346593A1, “IMIDAZO(1,2-1)PYRIDINE DERIVATIVES AS RIPK2 INHIBITORS” (Interline Therapeutics, Inc., priority 2022, published 2025)
Where two headings read alike, the source gives them in different places.

What was measured:
[1] = system: NF-κB pathway (SEAP) in THP1-Dual cells; experiment: THP-1 Dual cell SEAP assay (L18-MDP stimulated); assay type: cell-based; details: Homo sapiens, THP1-Dual, read-out: NFkB THP1 IC50
[2] = target: GST-RIPK2 fusion protein (human RIPK2 amino acids 1-310) (Homo sapiens (Human), UniProt O43353); experiment: RIPK2 binding competition assay (TR-FRET, Tracer 199)
[3] = read-out: RIPK2 IC50, RIPK2 binding competition assay

GST-RIPK2 fusion protein (human RIPK2 amino acids 1-310), sequence (O43353 1-310): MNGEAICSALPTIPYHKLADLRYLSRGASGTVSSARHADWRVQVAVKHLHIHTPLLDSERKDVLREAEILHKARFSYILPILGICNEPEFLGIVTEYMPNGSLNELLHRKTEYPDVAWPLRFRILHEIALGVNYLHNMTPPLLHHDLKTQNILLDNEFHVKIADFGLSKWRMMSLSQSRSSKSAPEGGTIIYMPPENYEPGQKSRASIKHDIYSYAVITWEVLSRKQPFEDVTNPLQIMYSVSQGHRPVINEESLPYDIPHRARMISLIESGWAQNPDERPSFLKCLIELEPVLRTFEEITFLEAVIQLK

Compound	IC50 [1] [nM]	IC50 [2, 3] [nM]	IC50 [2] [nM]
CCOc1cc2ncc(-c3cc(F)c(N)nc3C)n2cc1S(=O)(=O)C(C)C [Example 155, 5-(7-ethoxy-6-(isopropylsulfonyl)imidazo [1,2-a]pyridin-3-yl)-3-fluoro-6-methylpyridin-2-amine]	> 1000	> 20	
COc1cc2ncc(-c3cccc(CS(C)(=O)=O)c3)n2cc1S(=O)(=O)C(C)(C)C [Example 156, 6-(tert-butylsulfonyl)-7-methoxy-3-(3-((methylsulfonyl)methyl)phenyl)imidazo[1,2-a]pyridine]	> 1000	> 20	
COc1cc2ncc(-c3cc(N)cc(F)c3)n2cc1S(=O)(=O)C(C)(C)C [Example 157, 3-(6-(tert-butylsulfonyl)-7-methoxyimidazo[1,2-a]pyridin-3-yl)-5-fluoroaniline]	50 to 250		2.5 to 20
COc1cc2ncc(-c3ccc(OC)c(Cl)n3)n2cc1S(=O)(=O)C(C)(C)C [Example 158, 6-(tert-butylsulfonyl)-3-(6-chloro-5-methoxypyridin-2-yl)-7-methoxyimidazo[1,2-a]pyridine]	> 1000	> 20	
CCCS(=O)(=O)Nc1nc(-c2cnc3cc(OC)c(S(=O)(=O)C(C)(C)C)cn23)ccc1CC [Example 160, N-(6-(6-(tert-butylsulfonyl)-7-methoxyimidazo[1,2-a]pyridin-3-yl)-3-ethylpyridin-2-yl)propane-1-sulfonamide]	> 1000	> 20	
CCCS(=O)(=O)Nc1cc(OC)cc(-c2cnc3cc(OC)c(S(=O)(=O)C(C)(C)C)cn23)n1 [Example 161, N-(6-(6-(tert-butylsulfonyl)-7-methoxyimidazo[1,2-a]pyridin-3-yl)-4-methoxypyridin-2-yl)propane-1-sulfonamide]	250 to 1000		2.5 to 20
CNc1ccnc(-c2cnc3cc(OC)c(S(=O)(=O)C(C)(C)C)cn23)c1 [Example 162, 2-(6-(tert-butylsulfonyl)-7-methoxyimidazo[1,2-a]pyridin-3-yl)-N-methylpyridin-4-amine]	> 1000	> 20	
CCCS(=O)(=O)Nc1nc(-c2cnc3cc(OC)c(S(=O)(=O)C(C)(C)C)cn23)ccc1C [Example 163, N-(6-(6-(tert-butylsulfonyl)-7-methoxyimidazo[1,2-a]pyridin-3-yl)-3-methylpyridin-2-yl)propane-1-sulfonamide]	> 1000	> 20	
COc1cc2ncc(-c3cnc(N)c(F)c3F)n2cc1S(=O)(=O)C(C)(C)C [Example 164, 5-(6-(tert-butylsulfonyl)-7-methoxyimidazo[1,2-a]pyridin-3-yl)-3,4-difluoropyridin-2-amine]	> 1000	> 20	
COc1cc2ncc(-c3csc(N)n3)n2cc1S(=O)(=O)C(C)(C)C [Example 165, 4-(6-(tert-butylsulfonyl)-7-methoxyimidazo[1,2-a]pyridin-3-yl)thiazol-2-amine]	250 to 1000		2.5 to 20
COc1cc2ncc(-c3cnc(N)s3)n2cc1S(=O)(=O)C(C)(C)C [Example 166, 5-(6-(tert-butylsulfonyl)-7-methoxyimidazo[1,2-a]pyridin-3-yl)thiazol-2-amine]	> 1000	> 20	
COc1cc2ncc(-c3cc(F)c(N)nc3O)n2cc1S(=O)(=O)C(C)(C)C [Example 167, 6-amino-3-(6-(tert-butylsulfonyl)-7-methoxyimidazo[1,2-a]pyridin-3-yl)-5-fluoropyridin-2-ol]	> 1000	> 20	
COc1ccc(CNc2cc(-c3cnc4ccc(S(=O)(=O)C(C)(C)C)cn34)cc(F)n2)cc1 [Example 168, 4-(6-(tert-butylsulfonyl)imidazo[1,2-a]pyridin-3-yl)-6-fluoro-N-(4-methoxybenzyl)pyridin-2-amine]	250 to 1000		1 to 2.5
CC(C)(C)S(=O)(=O)c1ccc2ncc(-c3cc(F)nc(NCCC4(O)CCC4)c3)n2c1 [Example 171, 1-(2-((4-(6-(tert-butylsulfonyl)imidazo [1,2-a]pyridin-3-yl)-6-fluoropyridin-2-yl)amino)ethyl)cyclo-butan-1-ol]	< 50		1 to 2.5
CC(C)(O)CCNc1cc(-c2cnc3ccc(S(=O)(=O)C(C)(C)C)cn23)cc(F)n1 [Example 174, 4-((4-(6-(tert-butylsulfonyl)imidazo [1,2-a]pyridin-3-yl)-6-fluoropyridin-2-yl)amino)-2-methylbutan-2-ol]	50 to 250		2.5 to 20
COc1cc2ncc(-c3cc(F)nc(NCc4ccccc4)c3)n2cc1S(=O)(=O)C(C)(C)C [Example 175, N-benzyl-4-(6-(tert-butylsulfonyl)-7-methoxyimidazo[1,2-a]pyridin-3-yl)-6-fluoropyridin-2-amine]	< 50		< 1

Compound	IC50 [1] [nM]	IC50 [2, 3] [nM]	IC50 [2] [nM]
COc1cc2ncc(-c3cc(F)nc(NCCC(C)(C)OC)c3)n2cc1S(=O)(=O)C(C)(C)C [Example 176, 4-(6-(tert-butylsulfonyl)-7-methoxyimidazo[1,2-a]pyridin-3-yl)-6-fluoro-N-(3-methoxy-3-methylbutyl)pyridin-2-amine]	< 50	< 1	
COc1cc2ncc(-c3cc(F)nc(NC(C)C)c3)n2cc1S(=O)(=O)C(C)(C)C [Example 178, 4-(6-(tert-butylsulfonyl)-7-methoxyimidazo[1,2-a]pyridin-3-yl)-6-fluoro-N-isopropylpyridin-2-amine]	< 50	< 1	
CNc1cc(-c2cnc3cc(OC)c(S(=O)(=O)C(C)(C)C)cn23)cc(F)n1 [Example 179, 4-(6-(tert-butylsulfonyl)-7-methoxyimidazo[1,2-a]pyridin-3-yl)-6-fluoro-N-methylpyridin-2-amine]	< 50	< 1	
COc1cc2ncc(-c3cc(F)nc(NC4CCC4)c3)n2cc1S(=O)(=O)C(C)(C)C [Example 180, 4-(6-(tert-butylsulfonyl)-7-methoxyimidazo[1,2-a]pyridin-3-yl)-N-cyclobutyl-6-fluoropyridin-2-amine]	50 to 250	< 1	
CCCNc1cc(-c2cnc3cc(OC)c(S(=O)(=O)C(C)(C)C)cn23)cc(F)n1 [Example 181, 4-(6-(tert-butylsulfonyl)-7-methoxyimidazo[1,2-a]pyridin-3-yl)-6-fluoro-N-propylpyridin-2-amine]	< 50	< 1	
COc1cc2ncc(-c3cc(F)nc(NCCCC(C)(C)O)c3)n2cc1S(=O)(=O)C(C)(C)C [Example 182, 5-((4-(6-(tert-butylsulfonyl)-7-methoxyimidazo[1,2-a]pyridin-3-yl)-6-fluoropyridin-2-yl)amino)-2-methylpentan-2-ol]	< 50	< 1	
COc1cc2ncc(-c3cc(F)nc(NCCCO)c3)n2cc1S(=O)(=O)C(C)(C)C [Example 183, 3-((4-(6-(tert-butylsulfonyl)-7-methoxyimidazo[1,2-a]pyridin-3-yl)-6-fluoropyridin-2-yl)amino)propan-1-ol]	< 50	< 1	
COc1cc2ncc(-c3cc(F)nc(NCc4ccc(=O)[nH]c4)c3)n2cc1S(=O)(=O)C(C)(C)C [Example 184, 5-(((4-(6-(tert-butylsulfonyl)-7-methoxyimidazo[1,2-a]pyridin-3-yl)-6-fluoropyridin-2-yl)amino)methyl) pyridin-2(1H)-one]	50 to 250	< 1	
COc1cc2ncc(-c3cc(F)nc(NCC4CCC(=O)NC4)c3)n2cc1S(=O)(=O)C(C)(C)C (stereo not shown) [Example 185, 5-(((4-(6-(tert-butylsulfonyl)-7-methoxyimidazo[1,2-a]pyridin-3-yl)-6-fluoropyridin-2-yl)amino)methyl) piperidin-2-one]	< 50	< 1	
COc1cc2ncc(-c3cc(F)nc(N(C)C)c3)n2cc1S(=O)(=O)C(C)(C)C [Example 186, 4-(6-(tert-butylsulfonyl)-7-methoxyimidazo[1,2-a]pyridin-3-yl)-6-fluoro-N,N-dimethylpyridin-2-amine]	< 50	< 1	
COc1cc2ncc(-c3cc(F)nc(NCC4CCNC(=O)C4)c3)n2cc1S(=O)(=O)C(C)(C)C (stereo not shown) [Example 188, 4-(((4-(6-(tert-butylsulfonyl)-7-methoxyimidazo[1,2-a]pyridin-3-yl)-6-fluoropyridin-2-yl)amino)methyl) piperidin-2-one]	< 50	< 1	
COc1cc2ncc(-c3cc(F)nc(N[C@H]4C[C@H](O)C4)c3)n2cc1S(=O)(=O)C(C)(C)C [Example 193, (1r,3r)-3-((4-(6-(tert-butylsulfonyl)-7-methoxyimidazo[1,2-a]pyridin-3-yl)-6-fluoropyridin-2-yl)amino)cyclobutan-1-ol]	< 50	< 1	
COc1cc2ncc(-c3cc(F)nc(NCCCN)c3)n2cc1S(=O)(=O)C(C)(C)C [Example 194, N1-(4-(6-(tert-butylsulfonyl)-7-methoxyimidazo[1,2-a]pyridin-3-yl)-6-fluoropyridin-2-yl)propane-1,3-diamine]	< 50	< 1	
COc1cc2ncc(-c3cc(F)nc(NC[C@@H](O)CO)c3)n2cc1S(=O)(=O)C(C)(C)C [Example 195, (R)-3-((4-(6-(tert-butylsulfonyl)-7-methoxyimidazo[1,2-a]pyridin-3-yl)-6-fluoropyridin-2-yl)amino)propane-1,2-diol]	< 50	< 1	
COc1cc2ncc(-c3cc(F)nc(NCc4ccn(C)c(=O)c4)c3)n2cc1S(=O)(=O)C(C)(C)C [Example 196, 4-(((4-(6-(tert-butylsulfonyl)-7-methoxyimidazo[1,2-a]pyridin-3-yl)-6-fluoropyridin-2-yl)amino)methyl)-1-methylpyridin-2(1H)-one]	< 50		1 to 2.5
COc1cc2ncc(-c3cc(F)nc(NCCC4(O)CC4)c3)n2cc1S(=O)(=O)C(C)(C)C [Example 198, 1-(2-((4-(6-(tert-butylsulfonyl)-7-methoxyimidazo[1,2-a]pyridin-3-yl)-6-fluoropyridin-2-yl)amino)ethyl)cyclo-propan-1-ol]	< 50	< 1	
